Active and inactive are the calls of the source. The calls are words filed in the database; no cut-off is given here.
How the values were obtained:
NCI-H1299 = experiment: Antiproliferative activity against human NCI-H1299 cells assessed as reduction in cell viability incubated for 4 days by MTS assay; assay type: functional, cell-based; conditions: for Activity: dose 1000-100000 nM, time 4.0 day
NCI-H460 = experiment: Inhibition of colony formation in human NCI-H460 cells at 20 uM incubated for 8 days by crystal violet staining based analysis; assay type: functional, cell-based; conditions: time 8.0 day
Vimentin = Vimentin (Homo sapiens, UniProt P08670); experiment: Binding affinity to his-tagged recombinant Vimentin (unknown origin) assessed as dissociation constant by ELISA analysis
Sequence of Vimentin (P08670 whole entry): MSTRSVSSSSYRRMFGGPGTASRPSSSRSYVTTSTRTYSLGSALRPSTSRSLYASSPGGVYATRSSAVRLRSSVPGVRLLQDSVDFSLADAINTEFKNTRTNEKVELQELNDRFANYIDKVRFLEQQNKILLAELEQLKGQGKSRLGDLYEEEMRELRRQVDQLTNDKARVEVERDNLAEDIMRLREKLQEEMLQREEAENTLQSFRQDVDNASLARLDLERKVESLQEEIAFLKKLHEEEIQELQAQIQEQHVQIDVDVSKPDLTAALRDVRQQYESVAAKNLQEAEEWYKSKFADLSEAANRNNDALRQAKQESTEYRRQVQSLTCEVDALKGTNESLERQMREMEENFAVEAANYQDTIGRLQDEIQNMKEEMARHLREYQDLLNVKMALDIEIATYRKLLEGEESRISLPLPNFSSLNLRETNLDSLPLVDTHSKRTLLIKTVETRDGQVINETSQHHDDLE

| Structure (SMILES) | Activity (NCI-H1299) | also measured |
| --- | --- | --- |
| COCCN(CC(=O)N[C@H](CCCCN)C(=O)N[C@H](CCSC)C(=O)NCC(=O)NCC(=O)NCCCCC(NC(=O)CNC(=O)CNC(=O)[C@@H](CCSC)NC(=O)[C@@H](CCCCN)NC(=O)CN(CCOC)C(=O)CN(Cc1ccc2c(c1)OCO2)C(=O)CN(CC(C)C)C(=O)CN(CCCCN)C(=O)CN(CCCCN)C(=O)CN(CC(C)C)C(=O)CNc1ccc(C(=O)c2ccccc2)cc1)C(N)=O)C(=O)CN(Cc1ccc2c(c1)OCO2)C(=O)CN(CC(C)C)C(=O)CN(CCCCN)C(=O)CN(CCCCN)C(=O)CN(CC(C)C)C(=O)CNc1ccc(C(=O)c2ccccc2)cc1 (stereo partly specified) | Dose-Dependent Effect | – |
| COCCN(CC(=O)N[C@H](CCCCN)C(=O)N[C@H](CCSC)C(=O)NCC(=O)NCCCCC(NC(=O)CNC(=O)CNC(=O)[C@@H](CCSC)NC(=O)[C@@H](CCCCN)NC(=O)CN(CCOC)C(=O)CN(Cc1ccc2c(c1)OCO2)C(=O)CN(CC(C)C)C(=O)CN(CCCCN)C(=O)CN(CCCCN)C(=O)CN(CC(C)C)C(=O)CNc1ccc(C(=O)c2ccccc2)cc1)C(N)=O)C(=O)CN(Cc1ccc2c(c1)OCO2)C(=O)CN(CC(C)C)C(=O)CN(CCCCN)C(=O)CN(CCCCN)C(=O)CN(CC(C)C)C(=O)CNc1ccc(C(=O)c2ccccc2)cc1 (stereo partly specified) | Dose-Dependent Effect | – |
| COCCN(CC(=O)N[C@H](CCCCN)C(=O)N[C@H](CCSC)C(=O)NCC(=O)NCCCCC(NC(=O)CNC(=O)[C@@H](CCSC)NC(=O)[C@@H](CCCCN)NC(=O)CN(CCOC)C(=O)CN(Cc1ccc2c(c1)OCO2)C(=O)CN(CC(C)C)C(=O)CN(CCCCN)C(=O)CN(CCCCN)C(=O)CN(CC(C)C)C(=O)CNc1ccc(C(=O)c2ccccc2)cc1)C(N)=O)C(=O)CN(Cc1ccc2c(c1)OCO2)C(=O)CN(CC(C)C)C(=O)CN(CCCCN)C(=O)CN(CCCCN)C(=O)CN(CC(C)C)C(=O)CNc1ccc(C(=O)c2ccccc2)cc1 (stereo partly specified) | Dose-Dependent Effect | IC50 (NCI-H1299; NCI-H1299, 96 h): 6 µM |
| COCCN(CC(=O)N[C@H](CCCCN)C(=O)N[C@H](CCSC)C(=O)NCCOCCOCC(=O)NCCOCCOCC(=O)NCCCCC(NC(=O)COCCOCCNC(=O)COCCOCCNC(=O)[C@@H](CCSC)NC(=O)[C@@H](CCCCN)NC(=O)CN(CCOC)C(=O)CN(Cc1ccc2c(c1)OCO2)C(=O)CN(CC(C)C)C(=O)CN(CCCCN)C(=O)CN(CCCCN)C(=O)CN(CC(C)C)C(=O)CNc1ccc(C(=O)c2ccccc2)cc1)C(N)=O)C(=O)CN(Cc1ccc2c(c1)OCO2)C(=O)CN(CC(C)C)C(=O)CN(CCCCN)C(=O)CN(CCCCN)C(=O)CN(CC(C)C)C(=O)CNc1ccc(C(=O)c2ccccc2)cc1 (stereo partly specified) | Dose-Dependent Effect | – |
| COCCN(CC(=O)N[C@H](CCCCN)C(=O)N[C@H](CCSC)C(=O)NCC(=O)NCCCCC(NC(=O)COCCOCCNC(=O)CNC(=O)[C@@H](CCSC)NC(=O)[C@@H](CCCCN)NC(=O)CN(CCOC)C(=O)CN(Cc1ccc2c(c1)OCO2)C(=O)CN(CC(C)C)C(=O)CN(CCCCN)C(=O)CN(CCCCN)C(=O)CN(CC(C)C)C(=O)CNc1ccc(C(=O)c2ccccc2)cc1)C(N)=O)C(=O)CN(Cc1ccc2c(c1)OCO2)C(=O)CN(CC(C)C)C(=O)CN(CCCCN)C(=O)CN(CCCCN)C(=O)CN(CC(C)C)C(=O)CNc1ccc(C(=O)c2ccccc2)cc1 (stereo partly specified) | Dose-Dependent Effect | – |
| COCCN(CC(=O)N[C@H](CCCCN)C(=O)N[C@H](CCSC)C(=O)NCCOCCOCC(=O)NCCCCC(NC(=O)COCCOCCNC(=O)[C@@H](CCSC)NC(=O)[C@@H](CCCCN)NC(=O)CN(CCOC)C(=O)CN(Cc1ccc2c(c1)OCO2)C(=O)CN(CC(C)C)C(=O)CN(CCCCN)C(=O)CN(CCCCN)C(=O)CN(CC(C)C)C(=O)CNc1ccc(C(=O)c2ccccc2)cc1)C(N)=O)C(=O)CN(Cc1ccc2c(c1)OCO2)C(=O)CN(CC(C)C)C(=O)CN(CCCCN)C(=O)CN(CCCCN)C(=O)CN(CC(C)C)C(=O)CNc1ccc(C(=O)c2ccccc2)cc1 (stereo partly specified) | Dose-Dependent Effect | – |
| COCCN(CC(=O)N[C@H](CCCCN)C(=O)N[C@H](CCSC)C(=O)NCCCCC(NC(=O)CNC(=O)[C@@H](CCSC)NC(=O)[C@@H](CCCCN)NC(=O)CN(CCOC)C(=O)CN(Cc1ccc2c(c1)OCO2)C(=O)CN(CC(C)C)C(=O)CN(CCCCN)C(=O)CN(CCCCN)C(=O)CN(CC(C)C)C(=O)CNc1ccc(C(=O)c2ccccc2)cc1)C(N)=O)C(=O)CN(Cc1ccc2c(c1)OCO2)C(=O)CN(CC(C)C)C(=O)CN(CCCCN)C(=O)CN(CCCCN)C(=O)CN(CC(C)C)C(=O)CNc1ccc(C(=O)c2ccccc2)cc1 (stereo partly specified) | Dose-Dependent Effect | – |
| COCCN(CC(=O)N[C@H](CCCCN)C(=O)N[C@H](CCSC)C(=O)NCCCCC(NC(=O)[C@@H](CCSC)NC(=O)[C@@H](CCCCN)NC(=O)CN(CCOC)C(=O)CN(Cc1ccc2c(c1)OCO2)C(=O)CN(CC(C)C)C(=O)CN(CCCCN)C(=O)CN(CCCCN)C(=O)CN(CC(C)C)C(=O)CNc1ccc(C(=O)c2ccccc2)cc1)C(N)=O)C(=O)CN(Cc1ccc2c(c1)OCO2)C(=O)CN(CC(C)C)C(=O)CN(CCCCN)C(=O)CN(CCCCN)C(=O)CN(CC(C)C)C(=O)CNc1ccc(C(=O)c2ccccc2)cc1 (stereo partly specified) | Dose-Dependent Effect | inhibition (NCI-H460): Active; Kd (Vimentin): 1 µM |
